Results from the supplement of paper PMC10307832.

How the values were obtained:
Assay in all cases: relative viability (nuclei count vs DMSO), 5 days (fraction); higher = more cells survive
[1] = compound: CN(C)C/C=C/C(=O)Nc1cc2c(Nc3ccc(F)c(Cl)c3)ncnc2cc1O[C@H]1CCOC1 [Afatinib] + O=C(c1cc(Cc2n[nH]c(=O)c3ccccc23)ccc1F)N1CCN(C(=O)C2CC2)CC1 [Olaparib] (partner 8 µM)
How it was run: (§1)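 For relative viability, nuclei counts in treated wells were divided by those in vehicle wells. Lung cancer cell lines had been pin-tool dosed in 1536-well plates the day after seeding and cultured for 5 days, then fixed and stained in one step (final 0.05% Triton X-100, 1% formaldehyde, 1 ug/ml Hoechst) and imaged at 4×. Doses were one drug alone or a fixed anchor-drug dose plus five library-drug doses (not always all listed) in √10 steps, and values are duplicate-plate medians.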

[2] = compound: CN(C)C/C=C/C(=O)Nc1cc2c(Nc3ccc(F)c(Cl)c3)ncnc2cc1O[C@H]1CCOC1 [Afatinib] + COc1cc2c(Oc3ccc(NC(=O)C4(C(=O)Nc5ccc(F)cc5)CC4)cc3F)ccnc2cc1OCCCN1CCOCC1 [Foretinib] (partner 0.25 µM)
How it was run: as §1

[3] = compound: CN(C)C/C=C/C(=O)Nc1cc2c(Nc3ccc(F)c(Cl)c3)ncnc2cc1O[C@H]1CCOC1 [Afatinib] + Nc1nc2[nH]cc(CCc3ccc(C(=O)N[C@@H](CCC(=O)O)C(=O)O)cc3)c2c(=O)[nH]1 [Pemetrexed] (partner 0.2 µM)
How it was run: as §1

[4] = compound: CN(C)C/C=C/C(=O)Nc1cc2c(Nc3ccc(F)c(Cl)c3)ncnc2cc1O[C@H]1CCOC1 [Afatinib] + Cc1nc(NC(=O)N2CCC[C@H]2C(N)=O)sc1-c1ccnc(C(C)(C)C(F)(F)F)c1 [Alpelisib] (partner 2 µM)
How it was run: as §1

Cell Line | relative viability ([1]; first compound 0.005 µM) | relative viability ([1]; first compound 0.01581 µM) | relative viability ([1]; first compound 0.05 µM) | relative viability ([1]; first compound 0.1581 µM) | relative viability ([1]; first compound 0.5 µM) | relative viability ([2]; first compound 0.005 µM) | relative viability ([2]; first compound 0.01581 µM) | relative viability ([2]; first compound 0.05 µM) | relative viability ([2]; first compound 0.1581 µM) | relative viability ([2]; first compound 0.5 µM) | relative viability ([3]; first compound 0.005 µM) | relative viability ([3]; first compound 0.01581 µM) | relative viability ([3]; first compound 0.05 µM) | relative viability ([3]; first compound 0.1581 µM) | relative viability ([3]; first compound 0.5 µM) | relative viability ([4]; first compound 0.005 µM) | relative viability ([4]; first compound 0.01581 µM) | relative viability ([4]; first compound 0.05 µM) | relative viability ([4]; first compound 0.1581 µM) | relative viability ([4]; first compound 0.5 µM)
NCI-H838 | 0.803 | 0.723 | 0.819 | 0.757 | 0.815 | 1.07 | 1.01 | 1.11 | 1.02 | 1.26 | 0.246 | 0.243 | 0.259 | 0.243 | 0.259 | 0.93 | 1.1 | 1.06 | 0.905 | 1.1
NCI-H1437 | 0.657 | 0.64 | 0.642 | 0.596 | 0.569 | 1.26 | 1.27 | 1.24 | 1.31 | 1.33 | 0.32 | 0.298 | 0.339 | 0.324 | 0.283 | 0.99 | 1.06 | 1.04 | 0.924 | 1.01
NCI-H2170 | 0.624 | 0.598 | 0.475 | 0.169 | 0.155 | 0.962 | 1.01 | 0.906 | 0.369 | 0.294 | 0.251 | 0.245 | 0.25 | 0.214 | 0.212 | 0.571 | 0.421 | 0.314 | 0.207 | 0.233
LCLC-103H | 0.743 | 0.744 | 0.764 | 0.682 | 0.773 | 0.832 | 0.814 | 0.734 | 0.834 | 0.846 | 0.485 | 0.478 | 0.514 | 0.492 | 0.48 | 0.806 | 1.09 | 0.997 | 0.939 | 1
NCI-H441 | 0.491 | 0.521 | 0.649 | 0.441 | 0.512 | 1.22 | 0.837 | 0.987 | 0.742 | 0.75 | 0.255 | 0.246 | 0.25 | 0.283 | 0.274 | 0.831 | 0.763 | 0.751 | 0.581 | 0.626
SK-LU-1 | 0.49 | 0.447 | 0.414 | 0.492 | 0.452 | 0.856 | 0.833 | 0.878 | 0.764 | 0.845 | 0.967 | 0.816 | 1.03 | 0.948 | 0.969 | 1.38 | 0.918 | 1.06 | 1.1 | 0.913
BEN | 1.23 | 1.23 | 1.18 | 1.11 | 1.08 | 0.719 | 0.63 | 0.651 | 0.634 | 0.775 | 0.801 | 0.785 | 0.753 | 0.772 | 0.819 | 1.25 | 1.07 | 1.18 | 1.06 | 1.1
LC-2-ad | 0.752 | 0.754 | 0.724 | 0.707 | 0.701 | 0.815 | 0.718 | 0.565 | 0.565 | 0.6 | 0.275 | 0.273 | 0.259 | 0.28 | 0.274 | 0.892 | 0.441 | 0.819 | 0.687 | 0.784
COR-L23 | 0.325 | 0.325 | 0.358 | 0.369 | 0.366 | 1.16 | 0.981 | 0.946 | 1 | 1.01 | 0.22 | 0.201 | 0.214 | 0.201 | 0.192 | 0.922 | 0.728 | 0.935 | 0.685 | 0.752
RERF-LC-KJ | 0.851 | 0.86 | 0.906 | 0.865 | 0.828 | 0.844 | 0.86 | 0.82 | 0.8 | 0.794 | 0.466 | 0.442 | 0.484 | 0.481 | 0.453 | 0.784 | 0.636 | 0.601 | 0.572 | 0.502
NCI-H1915 | 0.255 | – | 0.244 | 0.27 | 0.259 | 1.19 | 1.05 | 1.11 | 1.02 | 0.974 | 0.532 | 0.491 | 0.468 | 0.52 | 0.427 | 1.09 | 1.09 | 1.06 | 1.02 | 0.972
NCI-H596 | 0.706 | 0.707 | 0.697 | 0.58 | 0.685 | 0.811 | 0.952 | 0.675 | 0.643 | 0.873 | 0.537 | 0.492 | 0.504 | 0.548 | 0.489 | 0.542 | 0.512 | 0.528 | 0.385 | 0.538
NCI-H2009 | 0.578 | 0.699 | 0.743 | 0.648 | 0.665 | 1.22 | 1.19 | 1.31 | 1.21 | 1.33 | 1.04 | 1.01 | 0.977 | 1.03 | 1.01 | 1.23 | 1.15 | 1.22 | 1.17 | 1.14
NCI-H2126 | 0.934 | 0.881 | 0.85 | 0.645 | 0.665 | 1.03 | 1.19 | 1.08 | 0.729 | 0.853 | 0.715 | 0.66 | 0.623 | 0.469 | 0.45 | 0.726 | 0.722 | 0.653 | 0.504 | 0.444
LXF-289 | 1.12 | 1.06 | 1.09 | 1.04 | 1.03 | 0.983 | 0.977 | 0.905 | 0.91 | 0.884 | 0.909 | 0.88 | 0.843 | 0.879 | 0.824 | 0.97 | 1.01 | 1.02 | 0.919 | 0.975
PC-14 | 0.193 | 0.19 | 0.139 | 0.12 | 0.134 | 0.45 | 0.149 | 0.184 | 0.179 | 0.183 | 0.155 | 0.155 | 0.164 | 0.165 | 0.149 | 0.169 | 0.15 | 0.137 | 0.127 | 0.163
